Test results as given in patent US7094909B2, “HIV protease inhibitors, compositions containing the same, their pharmaceutical uses and materials for their synthesis” (priority 2001, dated 2006).
Read-outs that look alike come from different tables or passages of the source.

Key:
[1] = biological target: T1, HIV-1 protease (Q7S mutant form) (Human immunodeficiency virus type 1 group M subtype B, UniProt P04585, Q495S); test: HIV-1 Protease RET assay; type: biochemical; conditions: Ave. Ki (nM), RET assay, Q7S enzyme, Morrison tight binding fit
T1 construct: made in house
In short: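 Ki values fitted with the Morrison tight-binding equation from steady-state RET cleavage (ex 340, em 490 nm) of 5 μM RE(EDANS)SQNYPIVQK(DABCYL)R. Buffer pH 4.8 acetate, 1M NaCl, 5 mM DTT, 1 mg/ml BSA, 10% DMSO; 2 nM Q7S mutant dimer, 37 °C, 12 min.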

[2] = test system: HIV-1 (HIV-1 RF, HIV-1 NL4-3) in CEM-SS / MT-2 cells; test: Cytopathic effect (CPE) inhibition assay (XTT/MTT dye reduction); type: cell-based
In short: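 Readout is XTT reduction (A450, 4 h) after six days of culturing virus-infected (moi 0.025–0.819) or mock-infected CEM-SS/MT-2 cells, 2×10^4 per well, with half-log compound series. Antiviral EC50 and cytotoxic CC50 are relative to uninfected compound-free cells. Therapeutic index is CC50 divided by EC50.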

461, 84V, 90M virus = test: Phenotypic susceptibility assay at Virologic, Inc.; type: cell-based, HIV-1; conditions: Human immunodeficiency virus 1, read-out: EC50 or IC50 (mM), values with asterisk (IC50)
Description: Compounds were tested in phenotypic susceptibility assays at Virologic, Inc., (See Petropoulos C. J., Parkin N. T., Limoli K. L., Lie Y. S., Wrin T., Huang W., Tian H., Smith D., Winslow G. A., Capon D J, Whitcomb J M. 2000, “A novel phenotypic drug susceptibility assay for human immunodeficiency virus type 1,” Antimicrob Agents Chemother 44(4):920–928) or using the assay described here. MT-2 cells were infected with either HIV-1 NL4-3 or HIV-1 NL4-3([…]) and incubated in the presence of serial 0.5 log dilutions of test compounds. Three days later, culture supernatants were collected and virus production, as determined by p24 ELISA, was assayed. Percent inhibition was calculated as p24 concentration in compound-treated samples as compared to infected, compound-free controls. Inhibition of viral replication is determined by measuring reduction in HIV p24 present in the culture supernatant, using a Beckman-Coulter p24HIV-1 Ag EIA kit and following the supplied protocol. Absorbance is read on a MRX microplate reader (Dynex Technologies). The EC50 was calculated as the concentration of compound that effected a decrease in the p24 production by infected, compound-treated cells to 50% of that produced by infected, compound-free cells.

[3] = Human immunodeficiency virus 1, NL43, read-out: Ave CPE EC50

| Compound | Ki [1] [nM] | EC50 [2, 3] [nM] | IC50 (461, 84V, 90M virus) [nM] | melting point [°C] | EC50 ([2]; Human immunodeficiency virus 1, NL43, read-out: Ave CPE EC50 (mM)) [nM] |
| --- | --- | --- | --- | --- | --- |
| CC1(C)SCN(C(=O)[C@@H](O)[C@H](Cc2ccccc2)NC(=O)O[C@H]2CCOC2)[C@@H]1C(=O)N[C@H]1CCCc2ccccc21 [Example B33, ((1S,2S)-1-Benzyl-3-{(R)-5,5-dimethyl-4-[(S)-(1,2,3,4-tetrahydro-naphthalen-1-yl)carbamoyl]-thiazolidin-3-yl}-2-hydroxy-3-oxo-propyl)-carbamic acid (S)-(tetrahydro-furan-3-yl) ester] | < 0.1 | 45 | 604 | 103 to 105 |  |
| Cc1c(O)cccc1C(=O)N[C@@H](Cc1ccccc1)[C@H](O)C(=O)N1CSC(C)(C)[C@H]1C(=O)N[C@H]1C=CCCC1 [Example A38, (R)-3-((2S,3S)-2-Hydroxy-3-{[1-(3-hydroxy-2-methyl-phenyl)-methanoyl]-amino}-4-phenyl-butanoyl)-5,5-dimethyl-thiazolidine-4-carboxylic acid (R)-cyclohex-2-enylamide] | < 0.1 | 38 |  | 193 to 195 |  |
| Cc1c(O)cccc1C(=O)N[C@@H](Cc1ccccc1)[C@H](O)C(=O)N1CSC(C)(C)[C@H]1C(=O)NC1CCC(C)CC1 (stereo partly drawn) [Example A36, (R)-3-((2S,3S)-2-Hydroxy-3-{[1-(3-hydroxy-2-methyl-phenyl)-methanoyl]-amino}-4-phenyl-butanoyl)-5,5-dimethyl-thiazolidine-4-carboxylic acid (4-methyl-cyclohexyl)-amide] | 0.78 | 343 |  | 192 to 194 |  |
| Cc1c(O)cccc1C(=O)N[C@@H](Cc1ccccc1)[C@H](O)C(=O)N1CSC(C)(C)[C@H]1C(=O)NCc1ccc2c(c1)OCO2 [Example A14, 3-((2S,3S)-2-Hydroxy-3-{[1-(3-hydroxy-2-methyl-phenyl)-methanoyl]-amino}-4-phenyl-butanoyl)-5,5-dimethyl-thiazolidine-4-carboxylic acid (benzo[1,3]dioxol-5-ylmethyl)-amide] | 0.32 |  | 226 |  | 61 |
| Cc1c(O)cccc1C(=O)N[C@@H](Cc1ccccc1)[C@H](O)C(=O)N1CSC(C)(C)[C@H]1C(=O)N[C@@H]1CCc2ccccc21 [Example A29, (R)-3-((2S,3S)-2-Hydroxy-3-{[1-(3-hydroxy-2-methyl-phenyl)-methanoyl]-amino}-4-phenyl-butanoyl)-5,5-dimethyl-thiazolidine4-carboxylic acid (R)-indan-1-ylamide] | 0.31 | 118 |  | 128 to 130 |  |
| Cc1c(O)cccc1C(=O)N[C@@H](Cc1ccccc1)[C@H](O)C(=O)N1CSC(C)(C)[C@H]1C(=O)N[C@@H]1CCOc2ccccc21 [Example A16, (R)-3-((2S,3S)-2-Hydroxy-3-{[1-(3-hydroxy-2-methyl-phenyl)-methanoyl]-amino}-4-phenyl-butanoyl)-5,5-dimethyl-thiazolidine-4-carboxylic acid (R)-chroman4-ylamide] | 0.43 | 254 |  | 135 to 136 |  |
| Cc1c(O)cccc1C(=O)N[C@@H](Cc1ccccc1)[C@H](O)C(=O)N1CSC(C)(C)[C@H]1C(=O)N[C@@H]1CCCc2ccccc21 [Example A4, 3-[2-Hydroxy-3-(3-hydroxy-2-methyl-benzoylamino)-4-phenyl-butyryl]-5,5-dimethyl-thiazolidine-4-carboxylic acid (1,2,3,4-tetrahydro-naphthalen-1-yl)-amide] | 2.2 | 270 |  | 123 to 125 |  |
| Cc1c(O)cccc1C(=O)N[C@@H](Cc1ccccc1)[C@H](O)C(=O)N1CSC(C)(C)[C@H]1C(=O)N[C@H]1CCSc2ccccc21 [Example A19, (R)-3-((2S,3S)-2-Hydroxy-3-{[1-(3-hydroxy-2-methyl-phenyl)-methanoyl]-amino}-4-phenyl-butanoyl)-5,5-dimethyl-thiazolidine-4-carboxylic acid (S)-thiochroman-4-ylamide] | 0.21 | 15 |  | 125 to 127 |  |
| Cc1c(O)cccc1C(=O)N[C@@H](Cc1ccccc1)[C@H](O)C(=O)N1CSC(C)(C)[C@H]1C(=O)NC[C@H]1CCCO1 [Example A12, (R)-3-((2S,3S)-2-Hydroxy-3-{[1-(3-hydroxy-2-methyl-phenyl)-methanoyl]-amino}-4-phenyl-butanoyl)-5,5-dimethyl-thiazolidine-4-carboxylic acid [(R)-1-(tetrahydro-furan-2-yl)methyl]-amide] | 5.5 | 127 |  | 105 to 107 |  |
| Cc1c(O)cccc1C(=O)N[C@@H](Cc1ccccc1)[C@H](O)C(=O)N1CSC(C)(C)[C@H]1C(=O)NCc1cccs1 [Example A23, (R)-3-((2S,3S)-2-Hydroxy-3-{[1-(3-hydroxy-2-methyl-phenyl)-methanoyl]-amino}-4-phenyl-butanoyl)-5,5-dimethyl-thiazolidine-4-carboxylic acid (thiophen-2-ylmethyl)-amide] | 2.6 | 17 | 48 |  |  |
| Cc1c(O)cccc1C(=O)N[C@@H](Cc1ccccc1)[C@H](O)C(=O)N1CSC(C)(C)[C@H]1C(=O)NC1CCCCC1 [Example A21, (R)-3-((2S,3S)-2-Hydroxy-3-{[1-(3-hydroxy-2-methyl-phenyl)-methanoyl]-amino)-4-phenyl-butanoyl)-5,5-dimethyl-thiazolidine-4-carboxylic acid cyclohexylamide] | < 0.1 | 49 | 655 |  |  |
| CCCC(=O)N[C@@H](Cc1ccccc1)[C@H](O)C(=O)N1CSC(C)(C)[C@H]1C(=O)NCc1ccccc1C [Example B20, (R)-3-((2S,3S)-3-Butyrylamino-2-hydroxy-4-phenyl-butyryl)-5,5-dimethyl-thiazolidine-4-carboxylic acid 2-methyl-benzylamide] | 2.1 | 1560 | 2080 |  |  |
| Cc1c(O)cccc1C(=O)N[C@@H](Cc1ccccc1)[C@H](O)C(=O)N1CSC(C)(C)[C@H]1C(=O)NCC1CC1 [Example A20, (R)-3-((2S,3S)-2-Hydroxy-3-{[1-(3-hydroxy-2-methyl-phenyl)-methanoyl]-amino}-4-phenyl-butanoyl)-5,5-dimethyl-thiazolidine-4-carboxylic acid cyclopropylmethyl-amide] | 0.16 | 35 | 219 |  |  |
| Cc1c(O)cccc1C(=O)N[C@@H](Cc1ccccc1)[C@H](O)C(=O)N1CSC(C)(C)[C@H]1C(=O)N[C@@H]1CCSc2ccccc21 [Example A18, (R)-3-((2S,3S)-2-Hydroxy-3-{[1-(3-hydroxy-2-methyl-phenyl)-methanoyl]-amino}-4-phenyl-butanoyl)-5,5-dimethyl-thiazolidine-4-carboxylic acid (R)-thiochroman-4-ylamide] | 0.3 | 27 |  | 125 to 127 |  |
| Cc1c(O)cccc1C(=O)N[C@@H](Cc1ccccc1)[C@H](O)C(=O)N1CSC(C)(C)[C@H]1C(=O)N[C@H]1CCCc2ccccc21 [Example A1, 3-[2-Hydroxy-3-(3-hydroxy-2-methyl-benzoylamino)-4-phenyl-butyryl]-5,5-dimethyl-thiazolidine-4-carboxylic acid (1,2,3,4-tetrahydro-naphthalen-1-yl)-amide] | 0.21 | 29 |  | 125 to 126 |  |
| Cc1cccc(C)c1OCC(=O)N[C@@H](Cc1ccccc1)[C@H](O)C(=O)N1CSC(C)(C)[C@H]1C(=O)N[C@H]1CCOc2ccccc21 [Example B30, (R)-3-{(2S,3S)-3-[2-(2,6-Dimethyl-phenoxy)-ethanoylamino]-2-hydroxy-4-phenyl-butanoyl}-5,5-dimethyl-thiazolidine-4-carboxylic acid (S)-chroman-4-ylamide] | 0.21 | 443 |  | 105 to 107 |  |
| Cc1c(O)cccc1C(=O)N[C@@H](Cc1ccccc1)[C@H](O)C(=O)N1CSC(C)(C)[C@H]1C(=O)NCC1CCCCC1 [Example A13, 3-[2-Hydroxy-3-(3-hydroxy-2-methyl-benzoylamino)-4-phenyl-butyryl]-5,5-dimethyl-thiiazolidine-4-carboxylic acid cyclohexylmethyl-amide] | 3.4 | 495 | 921 |  |  |
| COc1cccc(CNC(=O)[C@H]2N(C(=O)[C@@H](O)C(Cc3ccccc3)NC(=O)c3cccc(O)c3C)CSC2(C)C)c1 (single isomer, unassigned) |  |  |  | 108 to 110 |  |
